We go through seven compounds from patent publication US20260250257A1, “ANTIBACTERIAL AND SYNERGISTIC ACTIVE COMPOUND AND USE THEREOF” (EAST CHINA UNIVERSITY OF SCIENCE AND TECHNOLOGY, priority 2023, published 2026).

What all share (format): cell-based
Test [1] relates to ATCC13883 strain (Klebsiella pneumoniae). Put plainly: Broth microdilution, antibacterial activity of the compound used alone. From the text: (§1) The broth microdilution method was used to test the antibacterial effects of the compounds of the present invention against various Gram-negative bacterial strains when used alone.
The subject of test [2] is ATCC19606 strain (Acinetobacter baumannii). The description is as above.
Source text: as §1

The test system of test [3] is ATCC9027 strain (Pseudomonas aeruginosa). The description is as above.
Source text: as §1

Test [4] relates to ATCC25922 strain (Escherichia coli). The test is described as above.
Source text: as §1

In test [5] the test system is ATCC13883 strain (Klebsiella pneumoniae). Put plainly: Checkerboard antibacterial synergistic activity test with polymyxin E (FIC). Details: key: FIC≤0.5 synergy; 0.5–1 additive; 1–2 indifferent; ≥2 antagonism. Particulars: combined with polymyxin E. The method, then: (§2) Polymyxin E was diluted in sterile MH broth medium to concentrations of 16, 8, 4, 2, 1, 0.5, 0.25, 0.125, 0.0625, 0.031, and 0.015 μg/ml, and the drug to be tested was diluted to concentrations of 256, 128, 64, 32, 16, 8, and 4 μg/ml. According to the checkerboard method, combinations of the drug to be tested and polymyxin at different concentrations in ascending order were placed into a 96-well plate, and corresponding blank control groups were set up. 50 μl of the drug solution was added to each well, then 100 μl of bacterial liquid was added, and incubated in a 37° C. incubator for 16 hours. […] Calculation and judgment criteria:
(§3) Fractional Inhibitory Concentration (FIC) is calculated as follows: […]
(§4) Judgment criteria: FIC≤0.5: synergistic effect; 0.5<FIC<1: additive effect; 1<FIC<2: indifferent effect; FIC≥2: antagonistic effect.
(§5) In the table: ATCC19606 strain is Acinetobacter baumannii, ATCC25922 strain is Escherichia coli, ATCC13883 strain is Klebsiella pneumoniae, ATCC9027 strain is Pseudomonas aeruginosa. All four strains were purchased from ATCC.

Test [6] has as its system ATCC19606 strain (Acinetobacter baumannii). The test is described as above. Further details: key: FIC≤0.5 synergy; 0.5–1 additive; 1–2 indifferent; ≥2 antagonism. The note with it: combined with polymyxin E. The method, then: as §2, §3, §4, §5
For test [7], the system named is ATCC9027 strain (Pseudomonas aeruginosa). The test is described as above. Further details: key: FIC≤0.5 synergy; 0.5–1 additive; 1–2 indifferent; ≥2 antagonism. The note with it: combined with polymyxin E. How it is done: as §2, §3, §4, §5
For test [8], the system named is ATCC25922 strain (Escherichia coli). The description is as above. Further details: key: FIC≤0.5 synergy; 0.5–1 additive; 1–2 indifferent; ≥2 antagonism. The note with it: combined with polymyxin E. How it is done:
as §2, §3, §4, §5

As to `CS(=O)(=O)Oc1ccc(-c2coc(N=C(N)N)n2)cc1` [Compound I-28], the “Antibacterial activity of the compound of Formula I, ATCC13883” value (“Antibacterial activity … ATCC13883” for short) in test [1] is 256 µg/mL. The “Antibacterial activity of the compound of Formula I, ATCC19606” value (shortened to “Antibacterial activity … ATCC19606”) in test [2] came to 256 µg/mL. The “Antibacterial activity of the compound of Formula I, ATCC9027” value (“Antibacterial activity … ATCC9027” below) in test [3] amounted to 256 µg/mL. For the same compound, the “Antibacterial activity of the compound of Formula I, ATCC25922” value (“Antibacterial activity … ATCC25922” for short) in test [4] is 256 µg/mL. The “Synergistic activity (FIC value) ATCC13883” value in test [5] came out at 1.25. Besides, the “Synergistic activity (FIC value) ATCC19606” value in test [6] turned out to be 1.25. Besides, in test [7], the “Synergistic activity (FIC value) ATCC9027” value was 0.51. Also, in test [8], the “Synergistic activity (FIC value) ATCC25922” value stood at 1.25.

Consider `NC(N)=Nc1nc(-c2ccccc2OCc2ccccc2)cs1` [Compound I-7], for which the “Antibacterial activity … ATCC13883” value in test [1] is 256 µg/mL. For the same compound, in test [2], the “Antibacterial activity … ATCC19606” value was determined as 256 µg/mL. For the same compound, the “Antibacterial activity … ATCC9027” value in test [3] came to 256 µg/mL. Further, the “Antibacterial activity … ATCC25922” value in test [4] was determined as 256 µg/mL. Moreover, the “Synergistic activity (FIC value) ATCC13883” value in test [5] is recorded as 0.51. Also, in test [6], the “Synergistic activity (FIC value) ATCC19606” value worked out at 0.16. Moreover, in test [7], the “Synergistic activity (FIC value) ATCC9027” value is recorded as 0.75. Besides, the “Synergistic activity (FIC value) ATCC25922” value in test [8] came to 0.51.

In the case of `Ic1ccccc1Oc1ccccc1-c1csc(N=C2NCCCN2)n1` [Compound I-147], the “Antibacterial activity … ATCC13883” value in test [1] came to 128 µg/mL. The “Antibacterial activity … ATCC19606” value in test [2] stood at 256 µg/mL. Moreover, the “Antibacterial activity … ATCC9027” value in test [3] turned out to be 64 µg/mL. The “Antibacterial activity … ATCC25922” value in test [4] was 128 µg/mL. Besides, in test [5], the “Synergistic activity (FIC value) ATCC13883” value is recorded as 0.16. The “Synergistic activity (FIC value) ATCC19606” value in test [6] was 0.03. Also, the “Synergistic activity (FIC value) ATCC9027” value in test [7] is recorded as 0.28. For the same compound, in test [8], the “Synergistic activity (FIC value) ATCC25922” value was found to be 0.18.

Consider `Clc1sc(N=C2NCCCN2)nc1-c1ccccc1Oc1ccc(I)cc1I` [Compound I-148], for which, in test [1], the “Antibacterial activity … ATCC13883” value is 256 µg/mL. In addition, in test [2], the “Antibacterial activity … ATCC19606” value was 256 µg/mL. Further, the “Antibacterial activity … ATCC9027” value in test [3] was 256 µg/mL. The “Antibacterial activity … ATCC25922” value in test [4] turned out to be 256 µg/mL. Further, the “Synergistic activity (FIC value) ATCC13883” value in test [5] was found to be 0.09. In test [6], the “Synergistic activity (FIC value) ATCC19606” value is 0.31. In test [7], the “Synergistic activity (FIC value) ATCC9027” value is given as 0.06. Further, the “Synergistic activity (FIC value) ATCC25922” value in test [8] turned out to be 0.14.

For `Clc1cccc(-c2nc(N=C3NCCCN3)sc2Br)c1` [Compound I-185], the “Antibacterial activity … ATCC13883” value in test [1] worked out at 256 µg/mL. For the same compound, in test [2], the “Antibacterial activity … ATCC19606” value came to 256 µg/mL. Moreover, the “Antibacterial activity … ATCC9027” value in test [3] was 256 µg/mL. For the same compound, the “Antibacterial activity … ATCC25922” value in test [4] came to 256 µg/mL. The “Synergistic activity (FIC value) ATCC13883” value in test [5] is reported as 1.25. For the same compound, the “Synergistic activity (FIC value) ATCC19606” value in test [6] was 0.75. In test [7], the “Synergistic activity (FIC value) ATCC9027” value is given as 1.25. Further, the “Synergistic activity (FIC value) ATCC25922” value in test [8] is on record as 1.25.

Consider `Fc1cc(-c2csc(N=C3NCCCN3)n2)c(F)cc1Oc1ccccc1` [Compound I-136], for which the “Antibacterial activity … ATCC13883” value in test [1] came to 256 µg/mL. Moreover, in test [2], the “Antibacterial activity … ATCC19606” value is 256 µg/mL. Besides, in test [3], the “Antibacterial activity … ATCC9027” value stood at 256 µg/mL. Further, the “Antibacterial activity … ATCC25922” value in test [4] came to 256 µg/mL. For the same compound, the “Synergistic activity (FIC value) ATCC13883” value in test [5] came out at 1.25. In addition, the “Synergistic activity (FIC value) ATCC19606” value in test [6] is 1.25. Moreover, the “Synergistic activity (FIC value) ATCC9027” value in test [7] was found to be 1.25. For the same compound, the “Synergistic activity (FIC value) ATCC25922” value in test [8] came to 0.5.

Turning to `NC(N)=Nc1nc(-c2cccc(NC(=O)NC3CC3)c2)cs1` [Compound I-31], the “Antibacterial activity … ATCC13883” value in test [1] amounted to 256 µg/mL. Also, the “Antibacterial activity … ATCC19606” value in test [2] is 256 µg/mL. Further, the “Antibacterial activity … ATCC9027” value in test [3] was found to be 256 µg/mL. The “Antibacterial activity … ATCC25922” value in test [4] is 256 µg/mL. Moreover, in test [5], the “Synergistic activity (FIC value) ATCC13883” value turned out to be 0.31. Besides, the “Synergistic activity (FIC value) ATCC19606” value in test [6] is 0.25. Also, the “Synergistic activity (FIC value) ATCC9027” value in test [7] came to 0.5. In test [8], the “Synergistic activity (FIC value) ATCC25922” value came to 0.56.
